From patent US9708314B2, “Heterocyclic amide compound” (NISSAN CHEMICAL INDUSTRIES, LTD., priority 2013, dated 2017)

What was measured:
Assay type in all cases: in vivo
Monochoria vaginalis = test: Test Example 2: herbicidal activity, application during weed generation in submerged conditions; conditions: Eighteenth Table; application herbicide amount 320 g/ha
How it was run: (§1)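 Post-emergence application under submerged conditions: water-diluted emulsion dosed onto the water surface (g/ha) when weeds reach one- to two-leaf stage. Soil flooded to 4 cm; greenhouse 25–30 °C. Herbicidal ratio graded in six classes, 0 (≤5%) to 5 (≥90%), at three weeks.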

Scirpus juncoides = test: as above; conditions: Eighteenth Table; application herbicide amount 320 g/ha
How it was run: as §1

[1] = test system: Echinochloa oryzacola Vasing.; test: as above; conditions: Eighteenth Table; application herbicide amount 320 g/ha
How it was run: as §1

[2] = test system: Beta vulgaris ssp. vulgaris; test: Test Example 4: effect on crop by application to foliage (diluvial soil, plastic box); conditions: for f (Beta vulgaris ssp. vulgaris) effect on crop grade: foliage application
How it was run: (§2)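 Emulsion-formulated compound, diluted to a predetermined g/ha dose, applied by small sprayer to leaves and stems of 14-day-old seedlings grown in sterilized diluvial soil. Effect rated on 0–5 herbicidal-ratio scale three weeks on.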

Glycine max = test: as above; conditions: for d (Glycine max) effect on crop grade: Application herbicide amount 320 g/ha
How it was run: as §2

Triticum aestivum = test: as above; conditions: for e (Triticum aestivum) effect on crop grade: foliage application
How it was run: as §2

Brassica campestris L. = test: as above; conditions: for g (Brassica campestris L.) effect on crop grade: foliage application
How it was run: as §2

[3] = test system: directly sowed Oryza sativa; test: as above; conditions: for b (directly sowed Oryza sativa) effect on crop grade: Application herbicide amount 320 g/ha
How it was run: as §2

Zea mays = test: as above; conditions: for c (Zea mays) effect on crop grade: Application herbicide amount 320 g/ha
How it was run: as §2

Lolium multiflorum Lam. = test: Test Example 4: herbicidal effect by application to foliage (diluvial soil, plastic box); conditions: for K (Lolium multiflorum Lam.) herbicidal effect grade: foliage application
How it was run: as §2

Amaranthus retroflexus = test: as above; conditions: for N (Amaranthus retroflexus) herbicidal effect grade: foliage application
How it was run: as §2

Chenopodium album = test: as above; conditions: for O (Chenopodium album) herbicidal effect grade: foliage application
How it was run: as §2

Apera spica-venti. = test: as above; conditions: for L (Apera spica-venti.) herbicidal effect grade: foliage application
How it was run: as §2

Alopecurus myosuroides = test: as above; conditions: for J (Alopecurus myosuroides) herbicidal effect grade: foliage application
How it was run: as §2

Veronica persica = test: as above; conditions: for R (Veronica persica) herbicidal effect grade: foliage application
How it was run: as §2

Digitaria ciliaris = test: as above; conditions: for F (Digitaria ciliaris) herbicidal effect grade: foliage application
How it was run: as §2

Stellaria media = test: as above; conditions: for P (Stellaria media) herbicidal effect grade: foliage application
How it was run: as §2

Avena fatua = test: as above; conditions: for I (Avena fatua) herbicidal effect grade: foliage application
How it was run: as §2

[4] = test system: Echinochloa crus-galli var. crus-galli; test: as above; conditions: for H (Echinochloa crus-galli var. crus-galli) herbicidal effect grade: foliage application
How it was run: as §2

Galium spurium = test: as above; conditions: for Q (Galium spurium) herbicidal effect grade: foliage application
How it was run: as §2

Abutilon theophrasti = test: as above; conditions: for M (Abutilon theophrasti) herbicidal effect grade: foliage application
How it was run: as §2

[5] = application to foliage, application herbicide amount 320 g/ha
[6] = Application herbicide amount 320 g/ha

Compound | C (Monochoria vaginalis) herbicidal ratio grade (Monochoria vaginalis) | B (Scirpus juncoides) herbicidal ratio grade (Scirpus juncoides) | A (Echinochloa oryzicola Vasing.) herbicidal ratio grade [1] | f (Beta vulgaris ssp. vulgaris) effect on crop grade [2, 6] | d (Glycine max) effect on crop grade (Glycine max; foliage application) | e (Triticum aestivum) effect on crop grade (Triticum aestivum; [6]) | g (Brassica campestris L.) effect on crop grade (Brassica campestris L.; [6]) | b (directly sowed Oryza sativa) effect on crop grade ([3]; foliage application) | c (Zea mays) effect on crop grade (Zea mays; foliage application) | K (Lolium multiflorum Lam.) herbicidal effect grade (Lolium multiflorum Lam.; [6]) | N (Amaranthus retroflexus) herbicidal effect grade (Amaranthus retroflexus; [6]) | O (Chenopodium album) herbicidal effect grade (Chenopodium album; [6]) | L (Apera spica-venti.) herbicidal effect grade (Apera spica-venti.; [6]) | J (Alopecurus myosuroides) herbicidal effect grade (Alopecurus myosuroides; [6]) | R (Veronica persica) herbicidal effect grade (Veronica persica; [6]) | F (Digitaria ciliaris) herbicidal effect grade (Digitaria ciliaris; [6]) | P (Stellaria media) herbicidal effect grade (Stellaria media; [6]) | I (Avena fatua) herbicidal effect grade (Avena fatua; [6]) | H (Echinochloa crus-galli var. crus-galli) herbicidal effect grade [4, 6] | Q (Galium spurium) herbicidal effect grade (Galium spurium; [6]) | also measured
Cn1nnnc1NC(=O)c1ccc(C(F)(F)F)n2c(C3=NOC(C)(C)C3)nnc12 [2-028] | 4 (Herbicidal ratio of 70% or more and less than 90%) | 4 (Herbicidal ratio of 70% or more and less than 90%) | 5 (Herbicidal ratio of 90% or more (almost completely withered)) |  |  |  |  |  |  |  |  |  |  |  |  |  |  |  |  |  | f (Beta vulgaris ssp. vulgaris) effect on crop grade ([2]; 320 g/ha): 5 (Herbicidal ratio of 90% or more (almost completely withered)); c (Glycine max) effect on crop grade (Glycine max; foliage application, 320 g/ha): 3 (Herbicidal ratio of 40% or more and less than 70%); e (Triticum aestivum) effect on crop grade (Triticum aestivum; 320 g/ha): 4 (Herbicidal ratio of 70% or more and less than 90%); g (Brassica campestris L.) effect on crop grade (Brassica campestris L.; 320 g/ha): 5 (Herbicidal ratio of 90% or more (almost completely withered)); d (directly sowed Oryza sativa) effect on crop grade ([3]; foliage application, 320 g/ha): 4 (Herbicidal ratio of 70% or more and less than 90%); b (Zea mays) effect on crop grade (Zea mays; foliage application, 320 g/ha): 5 (Herbicidal ratio of 90% or more (almost completely withered)); K (Lolium multiflorum Lam.) herbicidal effect grade (Lolium multiflorum Lam.; 320 g/ha): 4 (Herbicidal ratio of 70% or more and less than 90%); N (Amaranthus retroflexus) herbicidal effect grade (Amaranthus retroflexus; 320 g/ha): 5 (Herbicidal ratio of 90% or more (almost completely withered)); O (Chenopodium album) herbicidal effect grade (Chenopodium album; 320 g/ha): 5 (Herbicidal ratio of 90% or more (almost completely withered)); L (Apera spica-venti.) herbicidal effect grade (Apera spica-venti.; 320 g/ha): 5 (Herbicidal ratio of 90% or more (almost completely withered)); J (Alopecurus myosuroides) herbicidal effect grade (Alopecurus myosuroides; 320 g/ha): 4 (Herbicidal ratio of 70% or more and less than 90%); R (Veronica persica) herbicidal effect grade (Veronica persica; 320 g/ha): 5 (Herbicidal ratio of 90% or more (almost completely withered)); F (Digitaria ciliaris) herbicidal effect grade (Digitaria ciliaris; 320 g/ha): 5 (Herbicidal ratio of 90% or more (almost completely withered)); P (Stellaria media) herbicidal effect grade (Stellaria media; 320 g/ha): 5 (Herbicidal ratio of 90% or more (almost completely withered)); I (Avena fatua) herbicidal effect grade (Avena fatua; 320 g/ha): 4 (Herbicidal ratio of 70% or more and less than 90%); H (Echinochloa crus-galli var. crus-galli) herbicidal effect grade ([4]; 320 g/ha): 5 (Herbicidal ratio of 90% or more (almost completely withered)); Q (Galium spurium) herbicidal effect grade (Galium spurium; 320 g/ha): 4 (Herbicidal ratio of 70% or more and less than 90%); M (Abutilon theophrasti) herbicidal effect grade (Abutilon theophrasti; 320 g/ha): 5 (Herbicidal ratio of 90% or more (almost completely withered))
CCC(C)c1nnc2c(C(=O)Nc3nnnn3C)ccc(C(F)(F)F)n12 (stereo not drawn) [2-016] | 5 (Herbicidal ratio of 90% or more (almost completely withered)) | 5 (Herbicidal ratio of 90% or more (almost completely withered)) | 5 (Herbicidal ratio of 90% or more (almost completely withered)) |  |  |  |  |  |  |  |  |  |  |  |  |  |  |  |  |  | f: effect on crop, Beta vulgaris ssp. vulgaris [2, 5]: 5 (Herbicidal ratio of 90% or more (almost completely withered)); d: effect on crop, Glycine max (Glycine max; [5]): 4 (Herbicidal ratio of 70% or more and less than 90%); e: effect on crop, Triticum aestivum (Triticum aestivum; [5]): 4 (Herbicidal ratio of 70% or more and less than 90%); g: effect on crop, Brassica campestris L. (Brassica campestris L.; [5]): 4 (Herbicidal ratio of 70% or more and less than 90%); b: effect on crop, directly sowed Oryza sativa [3, 5]: 5 (Herbicidal ratio of 90% or more (almost completely withered)); c: effect on crop, Zea mays (Zea mays; [5]): 1 (Herbicidal ratio of 5% or more and less than 20%); K: herbicidal effect on Lolium multiflorum Lam. (Lolium multiflorum Lam.; [5]): 4 (Herbicidal ratio of 70% or more and less than 90%); N: herbicidal effect on Amaranthus retroflexus (Amaranthus retroflexus; [5]): 5 (Herbicidal ratio of 90% or more (almost completely withered)); O: herbicidal effect on Chenopodium album (Chenopodium album; [5]): 5 (Herbicidal ratio of 90% or more (almost completely withered)); L: herbicidal effect on Apera spica-venti. (Apera spica-venti.; [5]): 4 (Herbicidal ratio of 70% or more and less than 90%); J: herbicidal effect on Alopecurus myosuroides (Alopecurus myosuroides; [5]): 4 (Herbicidal ratio of 70% or more and less than 90%); R: herbicidal effect on Veronica persica (Veronica persica; [5]): 5 (Herbicidal ratio of 90% or more (almost completely withered)); F: herbicidal effect on Digitaria ciliaris (Digitaria ciliaris; [5]): 5 (Herbicidal ratio of 90% or more (almost completely withered)); P: herbicidal effect on Stellaria media (Stellaria media; [5]): 5 (Herbicidal ratio of 90% or more (almost completely withered)); I: herbicidal effect on Avena fatua (Avena fatua; [5]): 4 (Herbicidal ratio of 70% or more and less than 90%); H: herbicidal effect on Echinochloa crus-galli var. crus-galli [4, 5]: 5 (Herbicidal ratio of 90% or more (almost completely withered)); Q: herbicidal effect on Galium spurium (Galium spurium; [5]): 3 (Herbicidal ratio of 40% or more and less than 70%); M: herbicidal effect on Abutilon theophrasti (Abutilon theophrasti; [5]): 5 (Herbicidal ratio of 90% or more (almost completely withered))
Cc1nnc(NC(=O)c2ccc(C(F)(F)F)n3c(SCC4CCCO4)nnc23)o1 (stereo not drawn) [1-116] | 0 (Herbicidal ratio of 5% or less (almost no effect)) | 4 (Herbicidal ratio of 70% or more and less than 90%) | 3 (Herbicidal ratio of 40% or more and less than 70%) | 5 (Herbicidal ratio of 90% or more (almost completely withered)) | 3 (Herbicidal ratio of 40% or more and less than 70%) | 2 (Herbicidal ratio of 20% or more and less than 40%) | 4 (Herbicidal ratio of 70% or more and less than 90%) | 0 (Herbicidal ratio of 5% or less (almost no effect)) | 0 (Herbicidal ratio of 5% or less (almost no effect)) | 1 (Herbicidal ratio of 5% or more and less than 20%) | 4 (Herbicidal ratio of 70% or more and less than 90%) | 5 (Herbicidal ratio of 90% or more (almost completely withered)) | 1 (Herbicidal ratio of 5% or more and less than 20%) | 1 (Herbicidal ratio of 5% or more and less than 20%) | 4 (Herbicidal ratio of 70% or more and less than 90%) | 5 (Herbicidal ratio of 90% or more (almost completely withered)) | 5 (Herbicidal ratio of 90% or more (almost completely withered)) | 3 (Herbicidal ratio of 40% or more and less than 70%) | 5 (Herbicidal ratio of 90% or more (almost completely withered)) | 3 (Herbicidal ratio of 40% or more and less than 70%) | M (Abutilon theophrasti) herbicidal effect grade (Abutilon theophrasti; [6]): 4 (Herbicidal ratio of 70% or more and less than 90%)
Cc1nnc(NC(=O)c2ccc(C(F)(F)F)n3c(SCc4ccccc4)nnc23)o1 [1-113] | 0 (Herbicidal ratio of 5% or less (almost no effect)) | 0 (Herbicidal ratio of 5% or less (almost no effect)) | 2 (Herbicidal ratio of 20% or more and less than 40%) | 3 (Herbicidal ratio of 40% or more and less than 70%) | 0 (Herbicidal ratio of 5% or less (almost no effect)) | 0 (Herbicidal ratio of 5% or less (almost no effect)) | 0 (Herbicidal ratio of 5% or less (almost no effect)) | 0 (Herbicidal ratio of 5% or less (almost no effect)) | 0 (Herbicidal ratio of 5% or less (almost no effect)) | 0 (Herbicidal ratio of 5% or less (almost no effect)) | 3 (Herbicidal ratio of 40% or more and less than 70%) | 5 (Herbicidal ratio of 90% or more (almost completely withered)) | 0 (Herbicidal ratio of 5% or less (almost no effect)) | 0 (Herbicidal ratio of 5% or less (almost no effect)) | 3 (Herbicidal ratio of 40% or more and less than 70%) | 1 (Herbicidal ratio of 5% or more and less than 20%) | 4 (Herbicidal ratio of 70% or more and less than 90%) | 0 (Herbicidal ratio of 5% or less (almost no effect)) | 2 (Herbicidal ratio of 20% or more and less than 40%) | 0 (Herbicidal ratio of 5% or less (almost no effect)) | M (Abutilon theophrasti) herbicidal effect grade (Abutilon theophrasti; [6]): 1 (Herbicidal ratio of 5% or more and less than 20%)
